We go through 9 compounds from patent US12637427B2, “ALDH-2 inhibitor compounds and methods of use” (Amygdala Neurosciences, Inc., priority 2022, dated 2026).

The conditions of series [1]: O'Malley et al. 2021; cited from earlier work.
For a further series, the target named is T1, recombinant human ALDH-2 (Homo sapiens, UniProt P05091).
T1 sequence (P05091 18-517): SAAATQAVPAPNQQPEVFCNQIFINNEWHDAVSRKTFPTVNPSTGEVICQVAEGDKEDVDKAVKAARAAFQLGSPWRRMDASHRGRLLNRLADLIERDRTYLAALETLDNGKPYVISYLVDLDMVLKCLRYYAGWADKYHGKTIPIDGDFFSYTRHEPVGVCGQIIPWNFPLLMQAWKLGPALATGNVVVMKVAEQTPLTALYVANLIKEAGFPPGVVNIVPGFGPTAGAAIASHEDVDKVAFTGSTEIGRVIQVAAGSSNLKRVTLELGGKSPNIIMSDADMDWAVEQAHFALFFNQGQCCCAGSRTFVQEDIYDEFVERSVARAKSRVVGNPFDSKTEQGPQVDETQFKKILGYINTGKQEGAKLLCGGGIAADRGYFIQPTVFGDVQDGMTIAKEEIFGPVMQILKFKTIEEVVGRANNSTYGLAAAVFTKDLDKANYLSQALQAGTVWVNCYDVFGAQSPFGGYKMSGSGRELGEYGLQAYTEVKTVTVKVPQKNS
Put plainly: ALDH-2 inhibition assay. It is filed as biochemical. As to conditions: 60 min pre-incubation; 10 μM = highest concentration tested; read-out: Enzymatic Assays IC50 ALDH2.

Another series concerns the target T2, recombinant human ALDH-1 (Homo sapiens, UniProt P00352).
T2 sequence (P00352 1-501): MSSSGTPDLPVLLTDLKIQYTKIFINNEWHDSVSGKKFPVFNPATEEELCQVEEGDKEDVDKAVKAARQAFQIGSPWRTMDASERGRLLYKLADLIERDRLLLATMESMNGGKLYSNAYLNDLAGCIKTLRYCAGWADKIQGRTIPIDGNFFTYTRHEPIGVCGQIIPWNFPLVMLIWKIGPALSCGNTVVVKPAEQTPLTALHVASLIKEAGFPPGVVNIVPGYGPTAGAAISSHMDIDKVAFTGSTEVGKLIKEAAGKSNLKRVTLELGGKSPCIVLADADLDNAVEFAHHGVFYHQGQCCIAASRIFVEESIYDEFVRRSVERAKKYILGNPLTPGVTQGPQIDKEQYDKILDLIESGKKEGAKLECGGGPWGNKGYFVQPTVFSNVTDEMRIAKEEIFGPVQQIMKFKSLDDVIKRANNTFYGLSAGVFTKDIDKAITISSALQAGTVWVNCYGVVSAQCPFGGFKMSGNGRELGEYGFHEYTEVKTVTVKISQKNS
Put plainly: ALDH-1 inhibition assay. Type of series: biochemical. As to conditions: 60 min pre-incubation; 10 μM = highest concentration tested; read-out: Enzymatic Assays IC50 ALDH-1.

Another series deals with T3, MAO-A (Homo sapiens, UniProt P21397).
T3 sequence (P21397 1-527): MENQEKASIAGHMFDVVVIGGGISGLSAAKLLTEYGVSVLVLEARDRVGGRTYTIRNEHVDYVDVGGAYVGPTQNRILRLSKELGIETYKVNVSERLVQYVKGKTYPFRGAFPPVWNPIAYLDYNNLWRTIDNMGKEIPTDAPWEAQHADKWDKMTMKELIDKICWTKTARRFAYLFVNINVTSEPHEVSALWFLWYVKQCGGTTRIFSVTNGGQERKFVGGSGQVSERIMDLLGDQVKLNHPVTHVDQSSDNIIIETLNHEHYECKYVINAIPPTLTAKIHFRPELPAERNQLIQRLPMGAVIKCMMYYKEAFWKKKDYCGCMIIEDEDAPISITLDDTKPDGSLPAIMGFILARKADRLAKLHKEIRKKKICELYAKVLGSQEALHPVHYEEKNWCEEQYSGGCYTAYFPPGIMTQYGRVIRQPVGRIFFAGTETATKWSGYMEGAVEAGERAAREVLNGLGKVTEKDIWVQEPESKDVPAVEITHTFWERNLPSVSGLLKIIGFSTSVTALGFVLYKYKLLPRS
Put plainly: MAO-A inhibition assay. Type of series: biochemical. As to conditions: 20 min pre-incubation; 10 μM = highest concentration tested; read-out: Enzymatic Assays IC50 MAO-A. The method, then: (§1) D. MAO-A and MAO-B inhibition assays: MAO assays included luminogenic MAO substrate, reaction buffers, Luciferin Detection, and a reconstitution buffer with esterase. The MAO reaction mixture used in the assay included microsome contained MAO-A (2 μg) or MAO-B (10 μg), 160 μM substrate for MAO-A or 16 μM substrate for MAO-B, MAO-A buffer (100 mM Hepes buffer, pH 7.5, 5% glycerol) or MAO-B buffer (100 mM Hepes, pH 7.5, 5% glycerol, 10% dimethyl sulfoxide) in a final volume of 30 μL. After 20 minutes of pre-incubation of the MAO-A or MAO-B enzyme with the test ALDH-2 inhibitor compound, the reaction was initiated by adding enzyme substrate and the […] reaction was allowed to proceed for 60 minutes. Reconstituted Luciferin Detection Reagent (30 μL) was then added is added to simultaneously stop the MAO reaction and convert the methyl ester derivative to luciferin and produce light. The amount of light produced is directly proportional to the activity of MAO. The mixtures were further incubated for 20 minutes and activity of the enzyme was determined using Perkin-Elmer Envision Reader.

The target in the next series is T4, MAO-B (Homo sapiens, UniProt P27338).
T4 sequence (P27338 1-520): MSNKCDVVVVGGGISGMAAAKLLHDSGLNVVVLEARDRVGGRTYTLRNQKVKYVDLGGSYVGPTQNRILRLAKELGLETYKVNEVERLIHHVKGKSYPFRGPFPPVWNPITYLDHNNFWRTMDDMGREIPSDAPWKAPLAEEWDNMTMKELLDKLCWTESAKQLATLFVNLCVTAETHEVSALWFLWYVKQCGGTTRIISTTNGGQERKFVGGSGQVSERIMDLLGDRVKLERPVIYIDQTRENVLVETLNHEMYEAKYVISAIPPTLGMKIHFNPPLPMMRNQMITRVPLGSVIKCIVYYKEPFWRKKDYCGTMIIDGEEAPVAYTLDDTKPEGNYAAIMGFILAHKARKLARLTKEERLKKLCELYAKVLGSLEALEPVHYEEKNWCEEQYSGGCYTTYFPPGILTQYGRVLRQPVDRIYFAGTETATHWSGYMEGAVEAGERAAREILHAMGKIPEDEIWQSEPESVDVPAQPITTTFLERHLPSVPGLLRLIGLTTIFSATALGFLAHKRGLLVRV
Put plainly: MAO-B inhibition assay. As to conditions: 20 min pre-incubation; 10 μM = highest concentration tested; read-out: Enzymatic Assays IC50 MAO-B. Type of series: biochemical. The protocol: as §1

The next series deals with HepaRG spheroids. Put plainly: HepaRG 3D spheroid assay. It is filed as cell-based. As to conditions: minimum effective concentration crossing vehicle control threshold of cell health marker; 100 μM = highest concentration tested. The source says: See e.g., Walker et al., “The evolution of strategies to minimise the risk of human drug-induced liver injury (DILI) in drug discovery and development,” (2020) Archives of Toxicology, Vol. 94: 2559-2585, which is hereby incorporated by reference herein in its entirety. […] In applying the HepaRG spheroid assay analysis to determining the hepatoxic liability of ALDH-2 inhibitor compounds, consideration is made of the binding to plasma protein and the limitations to CNS penetration due to the blood-brain barrier.
E. HepaRG® 3D spheroid assay: The HepaRG 3D spheroid assay is described in Walker et al., “The evolution of strategies to minimise the risk of human drug-induced liver injury (DILI) in drug discovery and development,” (2020) Archives of Toxicology, Vol. 94: 2559-2585. Briefly, HepaRG® cells were seeded into ultra-low adhesion 96-well black walled clear bottomed spheroid microplates. […] At the end of the incubation period, the spheroids were loaded with the relevant dye/antibody for each cell health marker (spheroid count, spheroid size, DNA structure, mitochondrial mass, mitochondrial membrane potential, oxidative stress, glutathione content, and cellular ATP). The plates were then scanned using an automated fluorescent cellular imager, ArrayScan® (Thermo Scientific Cellomics).

Another series deals with T5, recombinant human ALDH-3 (Homo sapiens, UniProt P30838).
T5 sequence (P30838 1-453): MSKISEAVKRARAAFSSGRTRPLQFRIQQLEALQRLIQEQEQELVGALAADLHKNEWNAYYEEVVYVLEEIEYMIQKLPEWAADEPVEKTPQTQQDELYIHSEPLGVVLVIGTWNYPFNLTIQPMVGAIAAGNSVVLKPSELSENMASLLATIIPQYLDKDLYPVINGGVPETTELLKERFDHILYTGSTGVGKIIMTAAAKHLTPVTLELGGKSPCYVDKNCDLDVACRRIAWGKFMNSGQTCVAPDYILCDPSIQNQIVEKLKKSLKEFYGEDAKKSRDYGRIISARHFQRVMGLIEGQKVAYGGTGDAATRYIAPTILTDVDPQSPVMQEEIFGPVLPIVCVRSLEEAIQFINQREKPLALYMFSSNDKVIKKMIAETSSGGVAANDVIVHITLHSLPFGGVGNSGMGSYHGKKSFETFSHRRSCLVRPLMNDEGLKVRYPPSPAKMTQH
Put plainly: ALDH-3 inhibition assay. It is filed as biochemical. As to conditions: 60 min pre-incubation; 10 μM = highest concentration tested; read-out: Enzymatic Assays IC50 ALDH-3.

SMILES strings stand for the structures.

Procedure for recombinant human ALDH-1: B. ALDH-1 inhibition assay: The ALDH-1 reaction mixture used in the assay contained 100 μM formaldehyde, 2.5 mM NAD+, 20 mM NaCl, 10 mM MgCl2, 1 mM dithiothreitol (DTT; reducing agent), and 50 nM recombinant human ALDH-1 in 50 mM Hepes buffer, pH 7.5 in a final volume of 10 μL using 384-well Corning 3820 plates. After 60 min of pre-incubation of the test ALDH-2 inhibitor compound with ALDH-1, the reaction was started by adding NAD+ and formaldehyde and the assay reaction mixture was allowed to proceed for 60 minutes. Activity of the ALDH-1 enzyme was determined by monitoring NADH formation using Perkin-Elmer Envision Reader with excitation and emission wavelengths set at 340 and 460 nm, respectively.
Procedure for recombinant human ALDH-2: A. ALDH-2 inhibition assay: The ALDH-2 reaction mixture used in the assay contained 125 μM formaldehyde, 75 μM NAD+, 20 mM NaCl, 10 mM MgCl2, and 20 nM recombinant human ALDH-2 in 50 mM Hepes buffer, pH 7.5 in a final volume of 10 μL using 384-well Corning 3820 plates. After 60 min of pre-incubation of the test ALDH-2 inhibitor compound with ALDH-2, the reaction was started by adding NAD+ and formaldehyde and the assay reaction mixture was allowed to proceed for 60 minutes. Activity of the ALDH-2 enzyme was determined by monitoring NADH formation using Perkin-Elmer Envision Reader with excitation and emission wavelengths set at 340 and 460 nm, respectively.
Procedure for recombinant human ALDH-3: ALDH-3 inhibition assay: The ALDH-3 reaction mixture used in the assay contained 200 μM benzaldehyde, 2.5 mM NAD+, 20 mM NaCl, 10 mM MgCl2, and 10 nM recombinant human ALDH-3 in 50 mM Hepes buffer, pH 7.5 in a final volume of 10 μL using 384-well Corning 3820 plates. After 60 min of pre-incubation of the test ALDH-2 inhibitor compound with ALDH-3, the reaction was started by adding NAD+ and benzaldehyde and the assay reaction mixture was allowed to proceed for 60 minutes. Activity of the ALDH-3 enzyme was determined by monitoring NADH formation using Perkin-Elmer Envision Reader with excitation and emission wavelengths set at 340 and 460 nm, respectively.

Regarding `O=C(NCc1ccc(-c2cc[nH]c(=O)c2)cc1)c1c(Cl)cccc1Cl` [2,6-dichloro-N-[4-(2-oxo-1,2-dihydro-pyridin-4-yl)-benzyl]-benzamide], the hepatotoxicity in humans entry in series [1] is given as “high levels of hepatotoxicity”.
A word on the IC50: it is the concentration that inhibits the measured activity by half. As for `Cc1nccc(Cl)c1C(=O)NCc1ccc(-c2[nH]c(=O)ccc2F)cc1` [(1h), 4-Chloro-N-(4-(3-fluoro-6-oxo-1,6-dihydropyridin-2-yl)benzyl)-2-methylnicotinamide], the concentration for half-maximal inhibition (IC50) is 0.1 µM at recombinant human ALDH-2, over 10 µM at recombinant human ALDH-1, over 10 µM on MAO-A and over 10 µM on MAO-B. Also, the “HepaRG 3D Spheroid MEC” value with HepaRG spheroids was determined as 53.9 µM.
Take `O=C(NCc1ccc(-c2[nH]c(=O)ccc2F)nc1)c1c(Cl)cccc1Cl` [(1i), 2,6-dichloro-N-((3′-fluoro-6′-oxo-1′,6′-dihydro-[2,2′-bipyridin]-5-yl)methyl)benzamide]: the IC50 at recombinant human ALDH-2 is 0.004 µM; at recombinant human ALDH-1, over 10 µM; at MAO-A, over 10 µM; at MAO-B it was over 10 µM. Further, the “HepaRG 3D Spheroid MEC” value in the series on HepaRG spheroids is 15.3 µM.
For `O=C(NCc1ccc(-c2cccc(=O)[nH]2)nc1)c1c(Cl)cccc1Cl` [(1j), 2,6-Dichloro-N-((6′-oxo-1′,6′-dihydro-[2,2′-bipyridin]-5-yl)methyl)benzamide], the IC50 on recombinant human ALDH-2 was 0.007 µM; at recombinant human ALDH-1, over 10 µM; on MAO-A, over 10 µM; at MAO-B, over 10 µM. In addition, the “HepaRG 3D Spheroid MEC” value in the series with HepaRG spheroids amounted to 5.06 µM.
For the compound `Cc1nccc(Cl)c1C(=O)NCc1ccc(-c2cccc(=O)[nH]2)nc1` [(1m), 4-Chloro-2-methyl-N-((6′-oxo-1′,6′-dihydro-[2,2′-bipyridin]-5-yl)methyl)nicotinamide], the IC50 at recombinant human ALDH-2 was 0.98 µM; at recombinant human ALDH-1, over 10 µM; on recombinant human ALDH-3 it was over 10 µM; at MAO-A, over 10 µM; at MAO-B, over 10 µM.
As to `Cc1cccc(Cl)c1C(=O)NCc1cnc(-c2cccc(=O)[nH]2)nc1` [(1n), 2-Chloro-6-methyl-N-((2-(6-oxo-1,6-dihydropyridin-2-yl)pyrimidin-5-yl)methyl)benzamide], the IC50 on recombinant human ALDH-2 was 0.031 µM; on recombinant human ALDH-1, over 10 µM; at MAO-A it was over 10 µM; on MAO-B, over 10 µM. For the same compound, the “HepaRG 3D Spheroid MEC” value in the series with HepaRG spheroids stood at 7.48 µM.
In the case of `O=C(NCc1ccc(-c2[nH]c(=O)ccc2F)cc1)c1c(Cl)cccc1Cl` [Compound (1d), 2,6-dichloro-N-(4-(3-fluoro-6-oxo-1,6-dihydropyridin-2-yl)benzyl)benzamide], the IC50 is 0.027 µM on recombinant human ALDH-2, over 10 µM on recombinant human ALDH-1, over 10 µM at MAO-A and over 10 µM at MAO-B. Further, the “HepaRG 3D Spheroid MEC” value in the series on HepaRG spheroids is reported as “No Effect”.
For `Cc1cccc(Cl)c1C(=O)NCc1ccc(-c2[nH]c(=O)ccc2F)cc1` [Compound (1e), 2-Chloro-N-(4-(3-fluoro-6-oxo-1,6-dihydropyridin-2-yl)benzyl)-6-methylbenzamide], the IC50 at recombinant human ALDH-2 was 0.009 µM; on recombinant human ALDH-1, over 10 µM; at MAO-A, over 10 µM; at MAO-B, over 10 µM. The “HepaRG 3D Spheroid MEC” value in the series on HepaRG spheroids came out at 50.4 µM.
On to `O=C(NCc1ccc(-c2[nH]c(=O)ccc2F)cc1)c1ccccc1Cl` [Compound (1f), 2-Chloro-N-(4-(3-fluoro-6-oxo-1,6-dihydropyridin-2-yl)benzyl)benzamide], for which the IC50 at recombinant human ALDH-2 is 0.329 µM; at recombinant human ALDH-1, over 10 µM; on recombinant human ALDH-3, over 10 µM; at MAO-A, over 10 µM; on MAO-B, over 10 µM.
